Type in all cases: in vivo, pig
For one assay, the system named is MUC5AC. The assay is described as follows: Mucin gene expression in ileum and colon (qPCR), Example 5. Conditions: colon; LAM supplementation. On the procedure: (§1) 21 pigs with an initial weight of 17.9±2.2 Kg were assigned to one of the 3 dietary treatments: (T1) control; (T2) basal diet+300 ppm LAM; (T3) basal diet+600 ppm LAM. Experimental feeding continued for 21 days ad libitum. Diets were formulated to have similar digestible energy (DE) (14.4 MJ/Kg) and ileal digestible lysine (12.5 g/Kg).
(§2) Ileal and colonic tissues was stabilised in RNAlater® solution and stored overnight at 4° C. The following day, RNAlater® was removed and samples were stored at −86° C. prior to RNA extraction.
(§3) Tissue samples for RNA extraction were removed from −86° C. and homogenised. 500 μl of lysis solution/2-ME was added to each sample and these were mechanically disrupted using one 5 mm stainless steel bead per sample. These were then placed in a Tissue Lyser (Qiagen) and lysates were homogenised for 3 mins and transferred to a GenElute Filtration Column (Sigma Aldrich) and RNA was extracted. 1 µg of total RNA was used for cDNA synthesis using oligo(dT)20 primer in a final reaction volume of 20 μl with Superscript™ III First-Strand synthesis system for reverse transcriptase-polymerase chain reaction (RT-PCR) (Invitrogen Life Technologies, Carlsbad, Calif.). At the last step of cDNA synthesis, treatment with E. coli RNase H (Invitrogen Corp.) was performed to digest the remaining RNA/mRNA template, resulting in the production of the single-stranded cDNA template for subsequent qRT-PCR reactions.
(§4) All porcine primers for the cytokine genes interferon gamma (IFN-γ), interleukin-1α (IL-1α), IL-6, IL-8, IL-10, IL-17, tumour necrosis factor (TNF-α), the mucin genes (MUCs 1, 2, 4, 5AC, 12, 13 and 20) and three reference genes, β-actin (ACTB), Glyceraldehyde-3-phosphate dehydrogenase (GAPDH) and Peptidylprolyl isomerase A (PPIA), were designed using Primer Express™ (PE Applied Biosystems, Foster City, Calif.) and synthesised by MWG Biotech (Milton Keynes, UK). These reference genes were previously validated for use in porcine tissue and qPCR was then carried out on the cDNA using the ABI PRISM 7900HT Fast sequence detection system for 96-well plates (Applied Biosystems, Foster City, Calif.). All samples were prepared in duplicate using SYBR Green Fast PCR Master Mix (Applied Biosystems, Foster City, Calif.), cDNA as template and specific primers for the genes selected. For each reaction 5 μl cDNA, 1.2 μl (forward and reverse primer mix, 5 μM), 10 μl Fast SYBR Green PCR Master Mix (PE Applied Biosystems, Foster City, Calif.) was added and made up to a final volume of 20 μl. The two step PCR program was as follows: 95° C. for 10 minutes for 1 cycle followed by 95° C. for 15 seconds and 60° C. for 1 minute for 40 cycles. The raw Ct values for the reference genes were converted to relative quantities using the formula Q=E ^ΔCt where E is the PCR efficiency of the assay and ^ΔCt is the value calculated for the difference between the lowest Ct value for each gene minus the Ct value of the sample in question. The relative quantities of the endogenous controls were then analysed for stability in geNorm (Vandesompele et al., 2002). The stability ‘M’ value generated by the geNorm application for the selected endogenous controls (ACTB, GAPDH and PPIA) indicated their suitability as endogenous controls for these intestinal samples. The geometric mean of the relative quantities for ACTB, GAPDH and PPIA (normalisation factor) was then calculated using geNorm. The relative quantities of each target gene were divided by the normalisation factor (obtained in geNorm) for that sample to give the final normalised relative expression.
(Quantitative PCR measures a nucleic acid by following its amplification.)

The next assay has as its system MUC4. The assay is described as above. Here is the method: as §1, §2, §3, §4
Another assay concerns MUC2. The assay is described as above. Here is the method:
as §1, §2, §3, §4

In the next assay the test system is MUC1. The assay is described as above. The following applies: colon; LAM supplementation. Here is the method: as §1, §2, §3, §4
The subject of a further assay is Lactobacilli. The assay can be described thus: Microbial analysis of ileum and colon digesta, Example 5. Conditions: ileum; LAM 0-600 ppm. The text has this:
(§5) 21 pigs with an initial weight of 17.9±2.2 Kg were assigned to one of the 3 dietary treatments: (T1) control; (T2) basal diet+300 ppm LAM; (T3) basal diet+600 ppm LAM. Experimental feeding continued for 21 days ad libitum. Diets were formulated to have similar digestible energy (DE) (14.4 MJ/Kg) and ileal digestible lysine (12.5 g/Kg). Post-slaughter, digestive tract was removed by dissection and digesta was removed from the ileum. Each digesta sample was serially diluted in maximum recovery diluent (MRD, Oxoid, Basingstoke, UK), and spread plated onto selective agars. Bifidobacteria, Lactobacilli and Enterobacteria species were isolated according to the methods described by Pierce et al. (2005). Digesta samples used to measure VFA concentration were collected from the caecum and the same location in the ileum and colon. VFA analysis was performed using gas liquid chromatography (GLC) according to the method described by Pierce et al., (2005).

For the next assay, the system named is Enterobacteriaceae. The assay is described as above.
From the text: as §5

For the next assay, the system named is Bifidobacteria. The description is as above. The following applies: ileum; LAM 0-600 ppm.
From the text: as §5

In the next assay the test system is IL-10. The assay can be described thus: Cytokine gene expression in unchallenged ileum and colon tissue (qPCR), Example 5. Conditions: unchallenged ileum or colon tissue; LAM 300, 600 ppm. Here is the method:
as §1, §2, §3, §4

The next assay deals with IL-6. The assay is described as above. The following applies: unchallenged ileum or colon tissue; LAM 300, 600 ppm. Here is the method:
as §1, §2, §3, §4

In the next assay the test system is IL-8. Described as above. The following applies: unchallenged ileum or colon tissue; LAM 300, 600 ppm. On the procedure: as §1, §2, §3, §4
The test system of a further assay is IL-17. The assay is described as above. Conditions: unchallenged ileum or colon tissue; LAM 300, 600 ppm. On the procedure:
as §1, §2, §3, §4

The next assay relates to TNF-α. Described as above. The following applies: unchallenged ileum or colon tissue; LAM 300, 600 ppm. On the procedure: as §1, §2, §3, §4
The test system of another assay is IFN-γ. Described as above. The following applies: unchallenged ileum or colon tissue; LAM 300, 600 ppm. Here is the method: as §1, §2, §3, §4
For another assay, the system named is IL-1α. Described as above. Conditions: unchallenged ileum or colon tissue; LAM 300, 600 ppm. Here is the method: as §1, §2, §3, §4

Take laminarin: the MUC5AC expression entry in the assay on MUC5AC is “no effect”. For the same substance, the MUC4 expression result in the assay on MUC4 (colon, LAM 600 ppm) was “significantly increased”; with MUC4 (ileum, LAM supplementation), “no effect”. In addition, the MUC2 expression result was “significantly increased” in the assay on MUC2 (colon, LAM 600 ppm) and “increase” with MUC2 (ileum, LAM 300 ppm relative to control animals). In the assay with MUC2 (ileum, LAM 600 ppm), the “increased MUC2 expression” value is “not observed”. In addition, in the assay with MUC1, the MUC1 expression entry is given as “no effect”. The Lactobacilli populations result in the assay with Lactobacilli is “no effect”. The Enterobacteriaceae entry with Enterobacteriaceae (colon, LAM from Laminaria digitata, 300 and 600 ppm) is on record as “decrease”. Further, in the assay with Enterobacteriaceae (ileum, LAM 0-600 ppm), the Enterobacteriaceae populations result was “no effect”. Also, in the assay on Bifidobacteria, the Bifidobacteria populations entry is given as “no effect”. Further, the IL-10 gene expression entry with IL-10 is reported as “no effects”. Besides, the IL-6 gene expression result in the assay on IL-6 is “no effects”. Further, the IL-8 gene expression result in the assay on IL-8 is recorded as “no effects”. The IL-17 gene expression entry in the assay with IL-17 is reported as “no effects”. The TNF-α gene expression result with TNF-α is on record as “no effects”. The IFN-γ gene expression entry in the assay on IFN-γ was “no effects”. Moreover, the IL-1α gene expression result in the assay on IL-1α was “no effects”.

Source of the values: patent publication US9241951B2, “Of gastrointestinal health, immunity and performance by dietary intervention” (BIOATLANTIS LTD, priority 2009, dated 2016).
